Source: ChEMBL document CHEMBL5291721, “A preclinical secondary pharmacology resource illuminates target-adverse drug reaction associations of marketed drugs” (Nat Commun, 2023)

What was measured:
[1] = biological target: 5-hydroxytryptamine receptor 2A (Homo sapiens, UniProt P28223); format: functional, cell-based
Estrogen receptor = biological target: T1, Estrogen receptor (Homo sapiens, UniProt P03372)
T1 sequence (P03372 whole entry): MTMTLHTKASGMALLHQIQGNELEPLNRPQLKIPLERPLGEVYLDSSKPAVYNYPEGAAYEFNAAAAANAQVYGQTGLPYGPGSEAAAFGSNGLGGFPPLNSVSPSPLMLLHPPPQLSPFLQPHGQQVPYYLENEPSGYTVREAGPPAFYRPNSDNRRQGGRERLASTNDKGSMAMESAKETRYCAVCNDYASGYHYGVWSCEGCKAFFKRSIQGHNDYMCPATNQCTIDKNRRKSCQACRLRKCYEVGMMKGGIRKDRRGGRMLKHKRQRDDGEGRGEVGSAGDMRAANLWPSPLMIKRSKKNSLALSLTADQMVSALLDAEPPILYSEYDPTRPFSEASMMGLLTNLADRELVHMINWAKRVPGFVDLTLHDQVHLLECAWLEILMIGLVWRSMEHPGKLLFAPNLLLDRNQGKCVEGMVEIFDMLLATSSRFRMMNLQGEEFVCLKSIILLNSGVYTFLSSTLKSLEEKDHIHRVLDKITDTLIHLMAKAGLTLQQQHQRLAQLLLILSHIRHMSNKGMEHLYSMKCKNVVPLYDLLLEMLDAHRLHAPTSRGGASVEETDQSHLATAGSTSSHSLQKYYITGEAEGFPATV

[2] = biological target: T2, Muscarinic acetylcholine receptor M1 (Homo sapiens, UniProt P11229); format: functional
T2 sequence (P11229 whole entry): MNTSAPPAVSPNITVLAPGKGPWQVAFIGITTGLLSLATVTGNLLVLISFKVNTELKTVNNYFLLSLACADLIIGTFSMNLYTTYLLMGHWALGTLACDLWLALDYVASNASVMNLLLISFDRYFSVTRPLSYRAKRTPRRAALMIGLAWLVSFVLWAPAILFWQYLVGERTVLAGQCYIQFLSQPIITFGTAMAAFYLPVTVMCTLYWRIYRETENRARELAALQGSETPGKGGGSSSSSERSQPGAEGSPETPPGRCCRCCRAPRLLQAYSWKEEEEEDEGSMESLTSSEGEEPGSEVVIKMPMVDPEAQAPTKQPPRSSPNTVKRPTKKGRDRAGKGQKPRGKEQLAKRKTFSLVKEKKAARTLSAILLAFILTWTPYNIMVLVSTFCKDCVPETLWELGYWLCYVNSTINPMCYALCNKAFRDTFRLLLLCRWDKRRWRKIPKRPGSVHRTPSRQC

[3] = biological target: T3, Muscarinic acetylcholine receptor M2 (Homo sapiens, UniProt P08172); format: functional, cell-based
T3 sequence (P08172 whole entry): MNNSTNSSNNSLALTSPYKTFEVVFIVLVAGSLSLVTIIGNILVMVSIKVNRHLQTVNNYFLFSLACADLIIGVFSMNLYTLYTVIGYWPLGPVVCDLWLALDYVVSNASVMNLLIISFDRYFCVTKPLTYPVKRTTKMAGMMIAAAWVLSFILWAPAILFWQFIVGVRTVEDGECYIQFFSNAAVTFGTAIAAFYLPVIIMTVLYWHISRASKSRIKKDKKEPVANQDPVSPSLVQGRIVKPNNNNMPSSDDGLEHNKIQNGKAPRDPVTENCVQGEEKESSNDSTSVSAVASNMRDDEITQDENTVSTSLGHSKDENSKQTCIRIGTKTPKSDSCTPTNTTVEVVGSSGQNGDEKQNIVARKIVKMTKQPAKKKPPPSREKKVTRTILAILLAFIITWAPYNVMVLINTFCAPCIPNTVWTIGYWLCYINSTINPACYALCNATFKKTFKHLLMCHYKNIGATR

[4] = biological target: T4, Alpha-1A adrenergic receptor (Homo sapiens, UniProt P35348)
T4 sequence (P35348 whole entry): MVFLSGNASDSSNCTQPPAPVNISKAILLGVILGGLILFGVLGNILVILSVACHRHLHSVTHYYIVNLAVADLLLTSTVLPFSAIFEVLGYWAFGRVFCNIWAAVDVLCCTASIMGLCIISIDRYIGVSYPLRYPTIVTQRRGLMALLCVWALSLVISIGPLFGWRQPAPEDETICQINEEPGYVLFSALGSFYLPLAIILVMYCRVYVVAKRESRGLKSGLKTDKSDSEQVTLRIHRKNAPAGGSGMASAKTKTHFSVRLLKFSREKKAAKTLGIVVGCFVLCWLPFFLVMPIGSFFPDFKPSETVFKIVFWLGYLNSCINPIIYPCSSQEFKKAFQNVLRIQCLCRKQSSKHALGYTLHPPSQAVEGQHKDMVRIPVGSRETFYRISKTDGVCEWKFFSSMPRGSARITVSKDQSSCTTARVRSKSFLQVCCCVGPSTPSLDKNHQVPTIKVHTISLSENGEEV

Mu-type opioid receptor = Mu-type opioid receptor (Homo sapiens, UniProt P35372)
Mu-type opioid receptor, sequence (P35372 whole entry): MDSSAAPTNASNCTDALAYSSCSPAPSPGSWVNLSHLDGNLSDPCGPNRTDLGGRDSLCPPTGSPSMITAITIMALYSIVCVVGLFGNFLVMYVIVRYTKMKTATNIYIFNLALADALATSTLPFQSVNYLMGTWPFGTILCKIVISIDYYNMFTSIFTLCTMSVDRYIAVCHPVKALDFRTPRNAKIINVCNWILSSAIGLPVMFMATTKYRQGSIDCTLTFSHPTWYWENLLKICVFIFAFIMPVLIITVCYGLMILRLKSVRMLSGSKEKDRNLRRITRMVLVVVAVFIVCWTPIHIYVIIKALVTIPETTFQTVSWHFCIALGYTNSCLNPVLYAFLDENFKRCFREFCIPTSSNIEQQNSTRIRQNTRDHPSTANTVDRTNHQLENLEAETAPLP

D(3) dopamine receptor = D(3) dopamine receptor (Homo sapiens, UniProt P35462)
D(3) dopamine receptor, sequence (P35462 whole entry): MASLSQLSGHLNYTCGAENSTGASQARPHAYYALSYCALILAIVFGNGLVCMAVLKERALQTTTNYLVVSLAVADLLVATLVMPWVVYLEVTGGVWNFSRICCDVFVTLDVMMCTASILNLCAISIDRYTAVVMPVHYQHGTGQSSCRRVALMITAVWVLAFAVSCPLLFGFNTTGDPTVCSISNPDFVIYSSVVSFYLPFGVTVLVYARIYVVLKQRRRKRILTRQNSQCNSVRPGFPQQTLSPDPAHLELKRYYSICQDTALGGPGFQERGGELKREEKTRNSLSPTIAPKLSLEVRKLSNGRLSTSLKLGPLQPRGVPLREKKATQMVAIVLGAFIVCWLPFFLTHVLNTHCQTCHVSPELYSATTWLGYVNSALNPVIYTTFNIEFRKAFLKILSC

[5] = biological target: T5, Alpha-2A adrenergic receptor (Homo sapiens, UniProt P08913)
T5 sequence (P08913 whole entry): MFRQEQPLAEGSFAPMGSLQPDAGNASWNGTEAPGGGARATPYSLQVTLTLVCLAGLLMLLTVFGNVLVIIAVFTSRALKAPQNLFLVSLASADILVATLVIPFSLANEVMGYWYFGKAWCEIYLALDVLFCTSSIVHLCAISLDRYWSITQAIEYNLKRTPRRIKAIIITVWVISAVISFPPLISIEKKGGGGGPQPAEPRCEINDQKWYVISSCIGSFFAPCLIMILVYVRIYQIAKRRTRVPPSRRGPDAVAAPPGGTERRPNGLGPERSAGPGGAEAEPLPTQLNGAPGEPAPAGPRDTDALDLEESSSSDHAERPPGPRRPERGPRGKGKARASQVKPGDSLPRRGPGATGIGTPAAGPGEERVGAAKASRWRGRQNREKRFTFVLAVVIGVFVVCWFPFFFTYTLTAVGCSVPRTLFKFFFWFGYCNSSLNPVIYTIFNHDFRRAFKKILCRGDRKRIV
Further: assay procedure not described here.

5-hydroxytryptamine receptor 2A, sequence (P28223 whole entry): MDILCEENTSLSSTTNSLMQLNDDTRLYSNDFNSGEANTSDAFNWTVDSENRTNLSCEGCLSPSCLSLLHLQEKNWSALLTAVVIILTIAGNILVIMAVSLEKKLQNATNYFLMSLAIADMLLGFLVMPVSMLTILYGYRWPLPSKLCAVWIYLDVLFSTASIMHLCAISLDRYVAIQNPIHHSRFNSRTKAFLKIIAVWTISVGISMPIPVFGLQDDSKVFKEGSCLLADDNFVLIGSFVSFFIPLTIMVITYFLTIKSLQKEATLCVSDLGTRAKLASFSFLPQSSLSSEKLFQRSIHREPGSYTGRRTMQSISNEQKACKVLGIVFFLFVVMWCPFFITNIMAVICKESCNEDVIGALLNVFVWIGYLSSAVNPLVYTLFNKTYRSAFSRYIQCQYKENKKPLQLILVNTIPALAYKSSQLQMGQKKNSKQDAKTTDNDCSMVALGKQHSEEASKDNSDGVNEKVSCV

Compound	AC50 [1] [µM]	AC50 (Estrogen receptor) [µM]	AC50 [2] [µM]	AC50 [3] [µM]	AC50 [4] [µM]	AC50 (Mu-type opioid receptor) [µM]	AC50 (D(3) dopamine receptor) [µM]	AC50 [5] [µM]
CCC(C)C(CC)C(N)=O (stereo unspecified) [VALNOCTAMIDE]	> 30	> 30	> 30	> 30	–	–	–	–
[H]/N=C(/N)N/C(=N/[H])NCCc1ccccc1 [PHENFORMIN]	–	> 30	> 30	> 10	15	> 30	–	–
CCOC(=O)C1=C[C@]2(CC)CCCN3CCc4c(n1c1ccccc41)[C@@H]32 [VINPOCETINE]	> 30	–	> 30	–	–	–	–	–
C#C[C@]1(OC(C)=O)CC[C@H]2[C@@H]3CCC4=C/C(=N/O)CC[C@@H]4[C@H]3CC[C@@]21CC [NORGESTIMATE]	> 30	> 30	> 30	> 30	–	–	–	–
CC(C(=O)O)c1ccc(-c2ccccc2)c(F)c1 (stereo unspecified) [FLURBIPROFEN]	–	> 30	–	> 10	> 10	> 30	> 30	> 30
CCCC(CCC)C(N)=O [VALPROMIDE]	–	> 30	> 10	> 10	> 10	> 30	–	–
C/N=C(\NC)NCc1ccccc1 [BETHANIDINE]	> 30	> 30	> 30	> 30	–	–	–	–
OC1(c2ccc(Cl)cc2)c2ccccc2C2=NCCN21 (stereo unspecified) [MAZINDOL]	–	> 30	> 30	> 30	> 10	> 10	–	–
COc1cc(N)c(Cl)cc1C(=O)NC1CCN(Cc2ccccc2)CC1 [CLEBOPRIDE]	2.4	> 30	> 30	> 30	–	–	–	–
CC12CC3CC(C)(C1)CC(N)(C3)C2 [MEMANTINE]	–	1.6	> 10	> 10	> 10	> 10	–	–
CC(=O)N[C@@H](CS)C(=O)O [ACETYLCYSTEINE]	> 30	> 30	> 30	> 30	–	–	–	–
Cc1noc(NS(=O)(=O)c2ccc(N)cc2)c1C [SULFISOXAZOLE]	–	> 10	–	> 10	> 10	> 30	–	–
COCC1=C(C(=O)O)N2C(=O)[C@@H](NC(=O)/C(=N\OC)c3csc(N)n3)[C@H]2SC1 [CEFPODOXIME]	> 30	> 30	> 30	> 30	–	–	–	–
CCCCC(=O)O[C@]1(C(=O)CO)[C@@H](C)C[C@H]2[C@@H]3CCC4=CC(=O)C=C[C@]4(C)[C@@]3(F)[C@@H](O)C[C@@]21C [BETAMETHASONE VALERATE]	–	> 30	> 10	> 10	> 10	> 30	–	–
C[C@]12CC[C@@H]3c4ccc(O)cc4C[C@@H](CCCCCCCCC[S+]([O-])CCCC(F)(F)C(F)(F)F)[C@H]3[C@@H]1CC[C@@H]2O (stereo partly specified) [FULVESTRANT]	> 30	–	> 30	> 30	–	–	–	–
CNC1=Nc2ccc(Cl)cc2C(c2ccccc2)=[N+]([O-])C1 [CHLORDIAZEPOXIDE]	–	> 30	–	> 10	> 10	> 10	–	–
CCC[C@H](NC(=O)[C@@H]1[C@H]2CCC[C@H]2CN1C(=O)[C@@H](NC(=O)[C@@H](NC(=O)c1cnccn1)C1CCCCC1)C(C)(C)C)C(=O)C(=O)NC1CC1	–	> 30	> 10	–	> 10	> 30	–	–
CN1CCC(=C2c3ccccc3CCc3cccnc32)CC1 [AZATADINE]	–	> 30	0.11	0.08	8.64	> 30	–	–
CCC(=O)O[C@]1(C(=O)SCF)[C@H](C)C[C@H]2[C@@H]3C[C@H](F)C4=CC(=O)C=C[C@]4(C)[C@@]3(F)[C@@H](O)C[C@@]21C [FLUTICASONE PROPIONATE]	–	–	> 30	> 30	> 10	> 30	> 30	> 30
Cc1cccc(N2CC(CO)OC2=O)c1 (stereo unspecified) [TOLOXATONE]	> 30	–	> 30	> 30	–	–	–	–
